Source: patent US20080146500A1, “Selective Vpac2 Receptor Peptide Agonists” (priority 2004, published 2008)
Ends that are not written are not given here.

Legend:
[1] = tested on: Normal Wistar rats; assay: Intravenous glucose tolerance test (IVGTT), serum glucose and insulin; type: in vivo, rat
Experimental: Intravenous glucose tolerance test (IVGTT): Normal Wistar rats are fasted overnight and are anesthetized prior to the experiment. A blood sampling catheter is inserted into the rats. The compound is given in the jugular vein. Blood samples are taken from the carotid artery. A blood sample is drawn immediately prior to the injection of glucose along with the compound. After the initial blood sample, glucose mixed with compound is injected intravenously (i.v.). Compound may also be injected intravenously or subcutaneously prior to the glucose challenge. A glucose challenge of 0.5 g/kg body weight is given, injecting a total of 1.5 mL vehicle with glucose and agonist per kg body weight. The peptide concentrations are varied to produce the desired dose in μg/kg. Blood samples are drawn at 2, 4, 6 and 10 minutes after giving glucose. The control group of animals receives the same vehicle along with glucose, but with no compound added. In some instances, a 30 minute post-glucose blood sample is drawn. Aprotinin is added to the blood sample (250-500 kIU/ml blood). The serum is then analyzed for glucose and insulin using standard methodologies.
The assay uses a formulated and calibrated peptide stock in PBS. Normally, this stock is a prediluted 100 μM stock. However, a more concentrated stock with approximately 1 mg agonist per 1 mL is used. The specific concentration is always known. Variability in the maximal response is mostly due to variability in the vehicle dose.

[2] = tested on: ZDF rats; assay: Glucose lowering in conscious food-deprived diabetic ZDF rats; type: in vivo, rat
Experimental: Glucose lowering in diabetic ZDF rats. ZDF rats, 8-9 weeks old with fed glucose levels of approximately 300 mg/dl are used for this experiment. The animals are randomised into control (vehicle) and treatment group(s) on the day of the experiment and are conscious throughout the experiment. The compound is injected intravenously at the start of the experiment and blood samples are drawn from the tail vein immediately prior to compound injection and then 0.5, 1, 2, 3, 4 and 24 h after compound injection. The animals are deprived of food during the first 2 or 4 h of the experiment. The blood samples are collected in EDTA tubes, aprotinin added and immediately put on ice pending insulin and glucose analysis using standard methods.

[3] = 10 μg/kg iv, 0 h (immediately prior to injection)
[4] = 10 μg/kg iv, 0.5 h after injection
[5] = 10 μg/kg iv, 1 h after injection
[6] = 10 μg/kg iv, 2 h after injection
[7] = 10 μg/kg iv, 4 h after injection (food access after 2 h)
[8] = 10 μg/kg iv, 24 h after injection (food access after 2 h)
[9] = 30 μg/kg iv, 0 h (immediately prior to injection)
[10] = 30 μg/kg iv, 0.5 h after injection
[11] = 30 μg/kg iv, 1 h after injection
[12] = 30 μg/kg iv, 2 h after injection
[13] = 30 μg/kg iv, 4 h after injection (food access after 2 h)
[14] = 30 μg/kg iv, 24 h after injection (food access after 2 h)
[15] = 100 μg/kg iv, 0 h (immediately prior to injection)
[16] = 100 μg/kg iv, 1 h after injection
[17] = 100 μg/kg iv, 2 h after injection
[18] = 100 μg/kg iv, 3 h after injection
[19] = 100 μg/kg iv, 4 h after injection
[20] = 100 μg/kg iv, 24 h after injection (food access after 4 h)

With “P137: PEGylated material obtained from P120 and methoxy-PEG2-MAL-40K (HSDAVFTDNYTRLRKQVAAKKYLQSIKNKRYGGPSSGAPPPC; also: PEGylated with methoxy-PEG2-MAL-40K, site not given here) [Agonist P137]” the “% increase AUC (insulin, 0-10 min after glucose)” value (“% increase AUC” for short) ([1]; Dose = 10 μg/kg iv, time between glucose & compound 0 h) was “+366%”, the “% increase AUC” value ([1]; Dose = 10 μg/kg iv, time between glucose & compound 4 h) was “+193%” and the “% increase AUC” value ([1]; Dose = 30 μg/kg iv, time between glucose & compound 4 h) was “+321%”. The “% increase AUC” value ([1]; Dose = 100 μg/kg iv, time between glucose & compound 4 h) was “+487%”, the glucose [2, 3] was 344 mg/dL and the insulin [2, 3] was 12.5 ng/mL. The glucose [2, 4] was 277 mg/dL, the insulin [2, 4] was 21.2 ng/mL and the glucose [2, 5] was 244 mg/dL. For the same substance, the insulin [2, 5] was 18.5 ng/mL, the glucose [2, 6] was 199 mg/dL and the insulin [2, 6] was 20.0 ng/mL. It also gave a glucose [2, 7] of 361 mg/dL, an insulin [2, 7] of 18.5 ng/mL and a glucose [2, 8] of 336 mg/dL. The insulin [2, 8] was 15.0 ng/mL, the glucose [2, 9] was 329 mg/dL and the insulin [2, 9] was 10.9 ng/mL. The glucose [2, 10] was 254 mg/dL, the insulin [2, 10] was 27.0 ng/mL and the glucose [2, 11] was 218 mg/dL. For the same substance, the insulin [2, 11] was 23.7 ng/mL, the glucose [2, 12] was 156 mg/dL and the insulin [2, 12] was 23.1 ng/mL. The glucose [2, 13] was 347 mg/dL, the insulin [2, 13] was 20.8 ng/mL and the glucose [2, 14] was 347 mg/dL. The insulin [2, 14] was 16.0 ng/mL, the glucose [2, 15] was 307 mg/dL and the insulin [2, 15] was 17.8 ng/mL. For the same substance, the glucose [2, 16] was 362 mg/dL, the insulin [2, 16] was 19.9 ng/mL and the glucose [2, 17] was 360 mg/dL. The insulin [2, 17] was 15.9 ng/mL, the glucose [2, 18] was 323 mg/dL and the insulin [2, 18] was 15.4 ng/mL. It also gave a glucose [2, 19] of 304 mg/dL, an insulin [2, 19] of 15.1 ng/mL and a glucose [2, 20] of 400 mg/dL. The insulin [2, 20] was 11.1 ng/mL.
